These results are taken from US20230286982A1, “PROTEASOME ENHANCERS AND USES THEREOF” (Board of Trustees of Michigan State University, priority 2020, published 2023).

The target in assay [1] is T1, human constitutive 20S proteasome (Homo sapiens, UniProt P25787+P25789).
T1 construct: purchased Boston Biochem, Inc. (Cambridge, Mass.)
Put plainly: Fluorogenic peptide degradation 20S proteasome activity assay. The format is biochemical. The conditions noted are these: for 20S proteasome activity (in words): 0-80 μM; for AC200 (concentration achieving a doubling of 20S activity): combination of the three fluorogenic substrates (CT-L, T-L, Casp-L). The method, then:
Fluorogenic peptide degradation 20S proteasome activity assay. Activity assays were carried out in a 100 μL reaction volume. Different concentrations (1-80 μM) of test compounds were added to a black flat/clear bottom 96-well plate containing 1 nM of human constitutive 20S proteasome, in 50 mM Tris-HCl at pH 7.8, 100 mM NaCl and allowed to incubate for 15 min at 37° C. Fluorogenic substrates were then added and the enzymatic activity measured at 37° C. on a SpectraMax M5e spectrometer by measuring the change in fluorescence unit per minute for 1 hour at 380-460 nm. The fluorescence units for the vehicle control were set at a 100%, and the ratio of drug-treated sample set to that of vehicle control was used to calculate the fold change in enzymatic activity. The fluorogenic substrates used were one of the following: Suc-LLVY-AMC (CT-L activity, 20 μM), Z-LLE-AMC (Casp-L activity, 20 μM), Boc-LRR-AMC (T-L activity, 40 μM) or a combination of the three substrates each at 6.67 μM.

For assay [2], the target named is T2, human constitutive 20S proteasome impaired by α-synuclein oligomer mixture (Homo sapiens, UniProt P25787+P25789).
T2 construct: purchased Boston Biochem, Inc. (Cambridge, Mass.)
Put plainly: IDP oligomer inhibition in fluorogenic peptide degradation assay (α-synuclein oligomers). The format is biochemical. The conditions noted are these: 1-10 μM, concentration dependent; CT-L substrate; 500 nM α-synuclein oligomers. The method, then:
IDP oligomer Inhibition in fluorogenic peptide degradation assay. Assays were carried out in a 100 μL reaction volume. Different concentrations (1-10 μM) of test compounds were added to a black flat/clear bottom 96-well plate containing 1 nM of human constitutive 20S proteasome, in 50 mM Tris-HCl at pH 7.8 and allowed to incubate for 15 min at 37° C. Then, 1 μL of α-synuclein or amyloid beta oligomer mixture of was added to each sample to a final concentration of 500 nM for α-synuclein and 2.5 μM for amyloid beta. This mixture was then allowed to incubate again for 15 min at 37° C. Next, 10 μL of CT-L fluorogenic substrate was added to a final concentration of 20 μM. The enzymatic activity was measured at 37° C. on a SpectraMax M5e spectrometer by measuring the change in fluorescence unit per minute for 1 hour at 380-460 nm. The fluorescence units for the vehicle control were set at a 100%, and the ratio of drug-treated or just oligomer-treated samples to the vehicle control was used to calculate the relative enzymatic activity.

Assay [3] has as its target T3, human constitutive 20S proteasome impaired by amyloid beta oligomer mixture (Homo sapiens, UniProt P25787+P25789).
T3 construct: purchased Boston Biochem, Inc. (Cambridge, Mass.)
Put plainly: IDP oligomer inhibition in fluorogenic peptide degradation assay (amyloid beta oligomers). It is filed as biochemical. The conditions noted are these: 1-10 μM, concentration dependent; CT-L substrate; 2.5 μM amyloid beta. The method, then: Amylold beta aggregate preparation. Synthetic amyloid beta was purchased from Eurogentec. To remove preexisting aggregates, synthetic amyloid beta peptide was dissolved in 100% hexafluoroisopropanol (HFIP) and incubated at 37° C. for 2 h. The HFIP was removed and the remaining peptide films were stored at −80° C. until use. Aggregates were prepared by resuspending amyloid beta films with DMSO (50 μL per 1 mg of peptide), followed by addition of ultrapure H2O (800 μL) and rapid addition of 2 M Tris-base (10 μL) at pH 7.6. The solution was then vortexed for 5 seconds and allowed to incubate at room temperature for 5 minutes. The Amyloid beta mixture was then diluted to the desired concentration and used immediately.
IDP oligomer Inhibition in fluorogenic peptide degradation assay. Assays were carried out in a 100 μL reaction volume. […] The enzymatic activity was measured at 37° C. on a SpectraMax M5e spectrometer by measuring the change in fluorescence unit per minute for 1 hour at 380-460 nm. The fluorescence units for the vehicle control were set at a 100%, and the ratio of drug-treated or just oligomer-treated samples to the vehicle control was used to calculate the relative enzymatic activity.

In assay [4] the target is T4, purified human 20S proteasome (Homo sapiens, UniProt P25787+P25789).
T4 construct: purchased Boston Biochem, Inc. (Cambridge, Mass.)
Put plainly: In vitro purified α-synuclein oligomer degradation assay (western blot). It is filed as biochemical. The conditions noted are these: 24 hours incubation with 20S proteasome. On the procedure:
In vitro purified α-synuclein oligomer degradation assay (western blot). Digestion of α-synuclein oligomer mixture was carried out in a 50 μL reaction volume made of 50 mM Tris at pH 7.8; 0.33 μM α-synuclein oligomer mixture and 6.7 nM purified human 20S proteasome. Briefly, 20S proteasome was diluted to 7.58 nM in the reaction buffer. Fluspirilene or vehicle (1 μL of 50×stock or DMSO) were added to 44 μL of 7.58 nM 20S and incubated at 37° C. for 20 min. The substrate (5 μL of 3.3 μM synuclein oligomer mixture) was then added to the reaction mixture and incubated at 37° C. for 24 hours. The reactions were then quenched with concentrated SDS loading buffer. Samples were resolved on a 4-20% Tris-glycine SDS-PAGE and immunoblotted with mouse monoclonal anti α-synuclein IgG (1:2000) and anti-mouse HRP-linked IgG (1:2000). Blots were developed with ECL western reagent and imaged with an Azure Biosystems 3000 imager.

For assay [5], the system named is A53T α-synuclein in transiently transfected HEK-293T cells. Put plainly: A53T α-synuclein digestion in HEK-293T cells. The conditions noted are these: for accumulation of A53T α-synuclein protein: 10 or 30 μM, 8 hours, with cycloheximide 100 μg/mL, concentration dependent. It is filed as cell-based, human. The method, then: Cell culture. Human embryonic kidney cells (HEK293T) were maintained in Dulbecco's modified Eagle's medium (DMEM) supplemented with 10% fetal bovine serum and 100 units/mL penicillin/streptomycin, at 37° C. with 5% CO2.
Transient transfection of A53T α-synuclein plasmid Into HEK-293T cells. Cells were grown according using the methods stated above to ˜50-70% confluency. At this point plasmid prepared with Xfect transfection agent (prepared following manufacturers protocol) was added to the HEK-293 cells and incubated for 4 hours. The media was then replaced with fresh culture media and the cells were returned to the incubator for 24 hours prior to treatment.
A53T α-synuclein digestion in HEK-293T cells. HEK-293T cells were transfected as described above and incubated for 24 hours. The cells were then treated with 100 μg/mL of cycloheximide, in combination with either vehicle (DMSO), fluspirilene (10 or 30 μM), N-acylated fluspirilene (10 or 30 μM), bortezomib (100 nM), or a combination thereof for 8 hours. The cells were then lysed using RIPA buffer and the manufacturers protocol. A BCA assay was performed to quantify protein levels and the lysates were normalized to desired concentrations prior to electrophoresis and western blot analysis, performed as described previously.

The target of another assay is 26S proteasome (Homo sapiens, UniProt P25787+P25789). In words: Proteolysis of fluorogenic peptide substrates by purified 26S proteasome. The format is biochemical. The conditions noted are these: 0-80 μM. On the procedure: FIG. 1A is a plot showing the rate of proteolysis of fluorogenic peptide substrates by purified 20S and 26S proteasome in the presence of a concentration response (0-80 μM) of fluspirilene. […] Error bars denote standard deviation.
The small molecule antipsychotic drug fluspirilene was identified as a promising new scaffold for the development of 20S activators due to its strong enhancement of 20S proteolysis. To assess fluspirilene's 20S proteasome activity, a series of assays were performed using each of three fluorogenic peptide substrates. These substrates were a chymotryptic-like (CT-L), a trypsin-like (T-L) and a caspase-like (Casp-L) substrate, one for each of the catalytic sites of the proteasome. It has been shown that the proteasome's active sites allosterically regulate each other in the presence of their individual substrates. Therefore, a combination of the three probes to represent the overall activity of a 20S activator more accurately in a system in which all catalytic sites are interacting.

Another assay addresses dopamine D2 receptor (Homo sapiens, UniProt P14416). The conditions noted are these: cited from earlier work.
Setting [6] is: combination of the three catalytic site substrates.

“Also recorded” adds a separate entry of the source. Bounds are passed on as bounds.

dopamine D2 receptor, sequence (P14416 whole entry, species assumed): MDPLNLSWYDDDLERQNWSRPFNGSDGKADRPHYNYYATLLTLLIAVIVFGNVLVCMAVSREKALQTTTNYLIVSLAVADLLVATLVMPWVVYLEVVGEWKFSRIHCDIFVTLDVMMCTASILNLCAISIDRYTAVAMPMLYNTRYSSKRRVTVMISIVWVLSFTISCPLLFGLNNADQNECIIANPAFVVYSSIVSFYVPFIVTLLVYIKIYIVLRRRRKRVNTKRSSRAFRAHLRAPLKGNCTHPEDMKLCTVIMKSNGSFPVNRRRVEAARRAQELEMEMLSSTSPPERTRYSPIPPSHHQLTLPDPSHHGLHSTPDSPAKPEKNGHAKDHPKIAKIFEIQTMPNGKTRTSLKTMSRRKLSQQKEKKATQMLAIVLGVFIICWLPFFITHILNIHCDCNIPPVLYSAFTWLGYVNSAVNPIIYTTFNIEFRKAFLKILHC

With `O=C1NCN(c2ccccc2)C12CCN(CCC=C(c1ccc(F)cc1)c1ccc(F)cc1)CC2` [Compound 11], the “20S proteasome activity (in words)” value in assay [1] (setting [6]) is “lessened activity; also recorded: moderate activity”.
Regarding `O=C(CCC(c1ccc(F)cc1)c1ccc(F)cc1)N1CCC2(CC1)C(=O)NCN2c1ccccc1` [Compound 16], in assay [1] (setting [6]), the maximum fold enhancement was above 2000% and the “20S proteasome activity (in words)” value was “promising; also recorded: excellent activity”. In addition, the “AC200 (concentration achieving a doubling of 20S activity)” value in assay [1] was 1.9 µM. Further, the “max fold increases, increase over vehicle” value in assay [1] (for each substrate/combination) is recorded as above 1500%. In addition, the “activation of the CT-L site relative to fluspirilene” value in assay [1] (individual CT-L fluorescent peptide probe) is “reduced activation”. The “AC200 at the CT-L site” value in assay [1] (individual CT-L substrate (Suc-LLVY-AMC)) stood at 4.7 µM. Moreover, the “AC200 at the Casp-L site” value in assay [1] (individual Casp-L substrate (Z-LLE-AMC)) turned out to be 4.1 µM. Besides, the “activation of the T-L site relative to fluspirilene” value in assay [1] (individual T-L fluorescent peptide probe) was “better activation”. Also, the “prevention of 20S impairment by α-syn oligomers” value in assay [2] was “prevented 20S impairment”. Further, in assay [3], the “prevention of 20S impairment by amyloid beta oligomers” value is given as “prevented 20S impairment”. In assay [4], the “remaining α-syn oligomers relative to vehicle control” value is recorded as “reduction in overall α-syn oligomers”. Further, in assay [5], the “accumulation of A53T α-synuclein protein” value is reported as “effectively reduced the accumulation”. For the same compound, the “effect on A53T α-synuclein when proteasome activity is blocked” value in assay [5] (in combination with bortezomib (100 nM)) was “abrogated”.
In the case of `O=C1NCN(c2ccccc2)C12CCN(CCCC(c1ccc(F)cc1)c1ccc(F)cc1)CC2` [Fluspirilene, fluspirilene, reference compound], the “activation of the catalytic sites of the 20S proteasome” value in assay [1] (CT-L, T-L and Casp-L substrates) is on record as “activates all three catalytic sites”. In addition, in assay [1] (combination of probes, over vehicle control), the maximum fold enhancement is around 10 fold. Also, in assay [1] (setting [6]), the “20S proteasome activity (in words)” value is recorded as “promising”. In addition, in assay [1], the “AC200 (concentration achieving a doubling of 20S activity)” value was 2.2 µM. Moreover, the “enhancement of the proteolytic activity of the 26S proteasome” value at 26S proteasome is reported as “did not enhance”. Moreover, the “prevention of 20S impairment by α-syn oligomers” value in assay [2] is listed as “prevented 20S impairment”. In addition, the “prevention of 20S impairment by amyloid beta oligomers” value in assay [3] is reported as “prevented 20S impairment”. For the same compound, in assay [4], the “remaining α-syn oligomers relative to vehicle control” value was “reduction in overall α-syn oligomers”. Besides, the “accumulation of A53T α-synuclein protein” value in assay [5] is “effectively reduced the accumulation”. Moreover, the “dopamine D2 receptor antagonism” value at dopamine D2 receptor is “potent”.
